# Experimental data published in patent US6235748A, “Oxo-substituted compounds, process of making, and compositions and methods for inhibiting parp activity” (Guilford Pharmaceuticals Inc., priority 2000, dated 2001).
# Entries after “also recorded” stand apart in the source; their conditions may differ.
# How the values were obtained:
# recombinant human PARP = target: T1, recombinant human PARP (Homo sapiens, UniProt P09874); test: PARP enzyme assay with purified recombinant human PARP, [3H]NAD; type: biochemical; details: TABLE VII; 25° C., 15 minutes; read-out: Approximate IC50's
# T1 construct: purchased Trevigen (Gaithersburg, Md.)
# Experimental: The reaction was initiated by incubating the mixture at 25° C. After 15 minutes' incubation, the reaction was terminated by adding 500 microliters of ice cold 20% (w/v) trichloroacetic acid. The precipitate formed was transferred onto a glass fiber filter (Packard Unifilter-GF/B) and washed three times with ethanol. After the filter was dried, the radioactivity is determined by scintillation counting.
# [1] = system: ischemia and reperfusion of the heart in rabbits; details: cited from earlier work
# [2] = system: focal cerebral ischemia in male Long-Evans rats; test: Infarct in focal cerebral ischemia: distal MCA cauterization with bilateral temporary CCA occlusion; type: in vivo, rat (Long-Evans); details: for cross-sectional infarct area distribution, result in words: FIG. 1; for damaged (infarct) volume: mean±SD
# Experimental: (§1) Focal cerebral ischemia was produced by cauterization of the right distal MCA (middle cerebral artery) with bilateral temporary common carotid artery occlusion in male Long-Evans rats for 90 minutes. All procedures performed on the animals were approved by the University Institutional Animal Care and Use Committee of the University of Pennsylvania. A total of 42 rats (weights: 230-340 g) obtained from Charles River were used in this study. The animals fasted overnight with free access to water prior to the surgical procedure.
# (§2) Two hours prior to MCA occlusion, varying amounts (control, n=14; 5 mg/kg, n=7; 10 mg/kg, n=7; 20 mg/kg, n=7; and 40 mg/kg, n=7) of the PARP inhibitor compound, 3,4-dihydro-5-[4-(1-piperidinyl)-butoxy]-1(2H)-isoquinolinone ("DPQ"), were dissolved in dimethyl sulfoxide (DMSO) using a sonicator. A volume of 1.28 ml/kg of the resulting solution was injected intraperitoneally into fourteen rats.
# (§3) The rats were then anesthetized with halothane (4% for induction and 0.8%-1.2% for the surgical procedure) in a mixture of 70% nitrous oxide and 30% oxygen. The body temperature was monitored by a rectal probe and maintained at 37.5±0.5° C. with a heating blanket regulated by a homeothermic blanket control unit (Harvard Apparatus Limited, Kent, U.K.). A catheter (PE-50) was placed into the tail artery, and arterial pressure was continuously monitored and recorded on a Grass polygraph recorder (Model 7D, Grass Instruments, Quincy, Mass.). Samples for blood gas analysis (arterial pH, PaO2 and PaCO2) were also taken from the tail artery catheter and measured with a blood gas analyzer (ABL 30, Radiometer, Copenhagen, Denmark). Arterial blood samples were obtained 30 minutes after MCA occlusion.
# (§4) The head of the animal was positioned in a stereotaxic frame, and a right parietal incision between the right lateral canthus and the external auditory meatus was made. Using a dental drill constantly cooled with saline, a 3 mm burr hole was prepared over the cortex supplied by the right MCA, 4 mm lateral to the sagittal suture and 5 mm caudal to the coronal suture. The dura mater and a thin inner bone layer were kept, care being taken to position the probe over a tissue area devoid of large blood vessels. The flow probe (tip diameter of 1 mm, fiber separation of 0.25 mm) was lowered to the bottom of the cranial burr hole using a micromanipulator. The probe was held stationary by a probe holder secured to the skull with dental cement. The microvascular blood flow in the right parietal cortex was continuously monitored with a laser Doppler flowmeter (FloLab, Moor, Devon, U.K., and Periflux 4001, Perimed, Stockholm, Sweden).
# Focal cerebral ischemia was produced by cauterization of the distal portion of the right MCA with bilateral temporary common carotid artery (CCA) occlusion by the procedure of Chen et al., "A Model of Focal Ischemic Stroke in the Rat: Reproducible Extensive Cortical Infarction", Stroke, 17:738-43 (1986) and/or Liu et al., "Polyethylene Glycol-conjugated Superoxide Dismutase and Catalase Reduce Ischemic Brain Injury", Am. J. Physiol., 256:H589-93 (1989), both of which are hereby incorporated by reference.
# Specifically, bilateral CCA's were isolated, and loops made from polyethylene (PE-10) catheter were carefully passed around the CCA's for later remote occlusion. The incision made previously for placement of the laser doppler probe was extended to allow observation of the rostral end of the zygomatic arch at the fusion point using a dental drill, and the dura mater overlying the MCA was cut. […] The burr hole was covered with a small piece of Gelform, and the wound was sutured to maintain the brain temperature within the normal or near-normal range.
# After 90 minutes of occlusion, the carotid loops were released, the tail arterial catheter was removed, and all of the wounds were sutured. Gentamicin sulfate (10 mg/ml) was topically applied to the wounds to prevent infection. […]
# colitis in rats = details: colitis induced by intraluminal trinitrobenzene sulfonic acid in 50% ethanol; cited from earlier work
# [3] = system: cell viability, glucose metabolism, and DNA synthesis; details: cited from earlier work
# tumor cells = details: synergy: co-treatment with an alkylating drug; cited from earlier work
# [4] = Arterial blood gases and mean arterial blood pressure in the focal cerebral ischemia model; type: in vivo, rat (Long-Evans); details: for MABP, ischemia: average during occlusion; for MABP, steady state: just prior to occlusion
# Experimental: as §1, §2, §3
# A "steady state" MABP was taken following completion of the surgical preparation, just prior to occlusion; an "ischemia" MABP was taken as the average MABP during occlusion.
# [5] = system: right parietal cortex blood flow; test: Microvascular blood flow in right parietal cortex by laser Doppler flowmetry; type: in vivo, rat (Long-Evans); details: for relative blood flow in the right parietal cortex on occlusion: control 20.8±7.7%
# Experimental: as §4
# Since the blood flow values obtained from the laser doppler were in arbitrary units, only percent changes from the baseline (prior to occlusion) were reported.
# [6] = system: NO-mediated vascular failure in endotoxic shock; details: in vivo; cited from earlier work
# T1 sequence (P09874 whole entry): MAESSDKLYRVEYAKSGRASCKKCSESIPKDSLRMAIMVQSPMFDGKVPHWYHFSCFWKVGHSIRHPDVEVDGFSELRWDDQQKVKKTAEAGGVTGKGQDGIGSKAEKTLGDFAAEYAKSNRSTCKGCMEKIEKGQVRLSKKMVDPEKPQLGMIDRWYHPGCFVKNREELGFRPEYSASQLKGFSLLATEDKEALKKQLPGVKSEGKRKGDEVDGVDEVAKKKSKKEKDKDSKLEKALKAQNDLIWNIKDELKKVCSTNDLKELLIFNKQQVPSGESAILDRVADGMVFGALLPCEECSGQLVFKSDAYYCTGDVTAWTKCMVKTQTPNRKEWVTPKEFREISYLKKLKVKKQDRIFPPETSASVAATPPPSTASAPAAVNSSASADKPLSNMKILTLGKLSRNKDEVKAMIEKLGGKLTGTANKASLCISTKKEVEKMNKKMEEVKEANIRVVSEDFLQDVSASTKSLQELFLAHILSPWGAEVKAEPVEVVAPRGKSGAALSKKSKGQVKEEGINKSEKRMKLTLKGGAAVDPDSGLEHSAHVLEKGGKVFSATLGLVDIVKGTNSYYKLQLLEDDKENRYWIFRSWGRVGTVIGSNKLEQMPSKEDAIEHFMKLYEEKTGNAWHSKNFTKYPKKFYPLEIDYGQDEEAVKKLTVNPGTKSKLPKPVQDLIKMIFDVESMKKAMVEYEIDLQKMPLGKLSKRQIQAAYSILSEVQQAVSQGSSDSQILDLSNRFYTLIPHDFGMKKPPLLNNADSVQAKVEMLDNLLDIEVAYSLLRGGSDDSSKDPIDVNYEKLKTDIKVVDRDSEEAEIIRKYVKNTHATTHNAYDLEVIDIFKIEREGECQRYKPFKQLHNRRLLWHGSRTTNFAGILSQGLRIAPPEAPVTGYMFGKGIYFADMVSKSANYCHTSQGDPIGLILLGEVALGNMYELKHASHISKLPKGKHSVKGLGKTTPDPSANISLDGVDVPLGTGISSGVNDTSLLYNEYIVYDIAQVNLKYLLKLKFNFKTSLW
smiles,measurement,setting,value
O=c1[nH]c2cc(F)ccc2c2ccccc12,IC50,recombinant human PARP,~200 nM
"Oc1cccc2c(O)nccc12 [1,5-dihydroxy-isoquinoline]",reduction in infarct size,[1]; 1 mg/kg,38-48%
"O=C1NCCc2c(OCCCCN3CCCCC3)cccc21 [3,4-dihydro-5-[4-(1-piperidinyl)-butoxy]-1(2H)-isoquinolinon] [3,4-dihydro-5-[4-(1-piperidinyl)-butoxy]-1(2H)-isoquinolinone]","cross-sectional infarct area distribution, result in words",[2]; 5 mg/kg and 20 mg/kg,fell approximately halfway between the control and the 10 mg/kg curves
same,"infarct volume, result in words",[2]; 40 mg/kg,less neuroprotective
same,"cross-sectional infarct area distribution, result in words",[2]; 40 mg/kg,close to the control
same,"infarct volume, result in words",[2]; overall / dose comparison,U-shaped dose-response curve
NC(=O)c1cccc(N)c1 [3-aminobenzamide],reduction in infarct size in the heart,"[1]; 10 mg/kg, single injection one minute before occlusion or one minute before reperfusion",32-42%
same,"effect on colitis, result in words",colitis in rats,reduced the inflammatory response and restored the morphology and the energetic status of the distal colon
same,"effect on other metabolic processes, result in words",[3],"shown to affect cell viability, glucose metabolism, and DNA synthesis"
O=c1[nH]c2ccccc2c2ccccc12 [6(5H)-Phenanthridinone],"effect on tumor cells, result in words",tumor cells,"reduced proliferation of tumor cells, and a marked synergistic effect when tumor cells are co-treated with this compound and an alkylating drug"
"O=C1NCCc2c(OCCCCN3CCCCC3)cccc21 [DPQ, 3,4-dihydro-5-[4-(1-piperidinyl)-butoxy]-1(2H)-isoquinolinone]",damaged (infarct) volume,"[2]; 5 mg/kg i.p. 2 h before and 2 h after MCA occlusion, p<0.001 vs control (165.2±34.0 mm^3)",106.7±23.2 mm^3
same,damaged (infarct) volume,"[2]; 10 mg/kg i.p. 2 h before and 2 h after MCA occlusion, p<0.001 vs control (165.2±34.0 mm^3)",76.4±16.8 mm^3
same,damaged (infarct) volume,"[2]; 20 mg/kg i.p. 2 h before and 2 h after MCA occlusion, p<0.01 vs control (165.2±34.0 mm^3)",110.2±42.0 mm^3
same,"infarct volume, result in words",[2]; 40 mg/kg,no significant difference between the control and the 40 mg/kg-treated group
same,damaged (infarct) volume,"[2]; 40 mg/kg i.p. 2 h before and 2 h after MCA occlusion, not significant vs control (165.2±34.0 mm^3)",135.6±44.8 mm^3
same,"damaged volume compared to control, result in words","[2]; 5, 10 and 20 mg/kg",significant decrease in the damaged volume
same,"infarct volume, result in words",[2]; overall / dose comparison,"significant differences between the 5 mg/kg-treated group and the 10 mg/kg-treated group (p<0.02), and between the 10 mg/kg-treated group and the 40 mg/kg-treated group (p<0.01); also recorded: substantial reduction in infarct volume"
same,PaCO2,[4]; 5 mg/kg-treated group,38.0 mm Hg
same,PaO2,[4]; 5 mg/kg-treated group,126 ± 20 mm Hg
same,arterial pH,[4]; 5 mg/kg-treated group,7.36
same,"MABP, ischemia","[4]; 5 mg/kg-treated group, p < 0.01 vs steady state",91 ± 12 mm Hg
same,"MABP, steady state",[4]; 5 mg/kg-treated group,78 ± 5 mm Hg
same,PaCO2,[4]; 10 mg/kg-treated group,39.3 mm Hg
same,PaO2,[4]; 10 mg/kg-treated group,125 ± 16 mm Hg
same,arterial pH,[4]; 10 mg/kg-treated group,7.34
same,"MABP, ischemia","[4]; 10 mg/kg-treated group, p < 0.05 vs steady state",90 ± 14 mm Hg
same,"MABP, steady state",[4]; 10 mg/kg-treated group,80 ± 9 mm Hg
same,PaCO2,[4]; 20 mg/kg-treated group,41.3 mm Hg
same,PaO2,[4]; 20 mg/kg-treated group,122 ± 14 mm Hg
same,arterial pH,[4]; 20 mg/kg-treated group,7.35
same,"MABP, ischemia","[4]; 20 mg/kg-treated group, p < 0.01 vs steady state",91 ± 12 mm Hg
same,"MABP, steady state",[4]; 20 mg/kg-treated group,79 ± 10 mm Hg
same,PaCO2,[4]; 40 mg/kg-treated group,39.5 mm Hg
same,PaO2,[4]; 40 mg/kg-treated group,137 ± 17 mm Hg
same,arterial pH,[4]; 40 mg/kg-treated group,7.33
same,"MABP, ischemia","[4]; 40 mg/kg-treated group, p < 0.05 vs steady state",88 ± 12 mm Hg
same,"MABP, steady state",[4]; 40 mg/kg-treated group,78 ± 4 mm Hg
same,"MABP, result in words",[4]; all five groups including control,"MABP was significantly elevated following occlusion in all five groups, there were no significant differences in MABP during the occlusion period among the groups"
same,"arterial blood gases (PaO2, PaCO2 and pH), result in words",[4]; control and treated groups,within the physiological range in the control and treated groups with no significant differences in these parameters among the five groups
same,relative blood flow in the right parietal cortex on occlusion,[5]; 5 mg/kg-treated group (n=7),18.7±7.4 % of the baseline
same,relative blood flow in the right parietal cortex on occlusion,[5]; 10 mg/kg-treated group (n=7),21.4±7.7 % of the baseline
same,relative blood flow in the right parietal cortex on occlusion,[5]; 40 mg/kg-treated group (n=7),19.3±11.2 % of the baseline
same,"blood flow response to occlusion, result in words","[5]; control, 5, 10 and 40 mg/kg",no significant differences in the blood flow response to occlusion among the four groups
NC(=O)c1ccccc1 [benzamide],"effect on other metabolic processes, result in words",[3],"shown to affect cell viability, glucose metabolism, and DNA synthesis"
NC(=O)c1cccnc1 [nicotinamide],"effect on vascular failure in endotoxic shock, result in words",[6],"protects against delayed, NO-mediated vascular failure in endotoxic shock"
